The source of these data is patent publication US10508086B2 (CANCER RESEARCH TECHNOLOGY LIMITED, priority 2014, dated 2019).

The structures appear in SMILES notation.

The target of the test is Human Full Length PARG (Homo sapiens (Human), UniProt Q86W56). Kind of test: PARG in vitro enzyme assay (TR-FRET). The test is classed as biochemical. The settings on record: read-out: PARG_EC50_ENZYME. On the procedure:
PARG In vitro assays were conducted in a total volume of 15 ul in a standard 384 well format. 5 ul of Human Full Length PARG (Produced internally by Astra Zeneca), used at a final reaction concentration of […], was added to 5 ul of Ribosylated PARP substrate (also produced internally by Astra Zeneca) at final reaction concentration of 4.5 nM in assay buffer (50 mM Tris pH7.4, 0.1 mg/ml BSA, 3 mM EDTA, 0.4 mM EGTA, 1 mM DTT, 0.01% Tween 20, 50 mM KCl). The reaction was incubated at room temperature for 10 minutes and then 5 ul detection reagent was added. Detection Reagent consists of 42 nM MAb Anti-6HIS XL665 (CisBio: 61 HISXLB) and 2.25 nM Streptavidin Europium Cryptate (CisBio: 610SAKLB), both at 3× working stock concentrations (final concentrations of 14 nM and 0.75 nM respectively), in a detection buffer of 50 mM Tris pH7.4, BSA at 0.1 mg/ml and KF at 100 mM. Following incubation at room temperature for 60 minutes in the dark, TR-FRET signal was measured at Ex 340 and Em 665 and Em 620. A ratio was calculated as Em665/EM620×104 for each well and used to calculate percent inhibition for test compounds.
On the technique in general: TR-FRET usually uses a lanthanide donor and a delayed reading to cut background.

Human Full Length PARG, sequence (Q86W56 whole entry): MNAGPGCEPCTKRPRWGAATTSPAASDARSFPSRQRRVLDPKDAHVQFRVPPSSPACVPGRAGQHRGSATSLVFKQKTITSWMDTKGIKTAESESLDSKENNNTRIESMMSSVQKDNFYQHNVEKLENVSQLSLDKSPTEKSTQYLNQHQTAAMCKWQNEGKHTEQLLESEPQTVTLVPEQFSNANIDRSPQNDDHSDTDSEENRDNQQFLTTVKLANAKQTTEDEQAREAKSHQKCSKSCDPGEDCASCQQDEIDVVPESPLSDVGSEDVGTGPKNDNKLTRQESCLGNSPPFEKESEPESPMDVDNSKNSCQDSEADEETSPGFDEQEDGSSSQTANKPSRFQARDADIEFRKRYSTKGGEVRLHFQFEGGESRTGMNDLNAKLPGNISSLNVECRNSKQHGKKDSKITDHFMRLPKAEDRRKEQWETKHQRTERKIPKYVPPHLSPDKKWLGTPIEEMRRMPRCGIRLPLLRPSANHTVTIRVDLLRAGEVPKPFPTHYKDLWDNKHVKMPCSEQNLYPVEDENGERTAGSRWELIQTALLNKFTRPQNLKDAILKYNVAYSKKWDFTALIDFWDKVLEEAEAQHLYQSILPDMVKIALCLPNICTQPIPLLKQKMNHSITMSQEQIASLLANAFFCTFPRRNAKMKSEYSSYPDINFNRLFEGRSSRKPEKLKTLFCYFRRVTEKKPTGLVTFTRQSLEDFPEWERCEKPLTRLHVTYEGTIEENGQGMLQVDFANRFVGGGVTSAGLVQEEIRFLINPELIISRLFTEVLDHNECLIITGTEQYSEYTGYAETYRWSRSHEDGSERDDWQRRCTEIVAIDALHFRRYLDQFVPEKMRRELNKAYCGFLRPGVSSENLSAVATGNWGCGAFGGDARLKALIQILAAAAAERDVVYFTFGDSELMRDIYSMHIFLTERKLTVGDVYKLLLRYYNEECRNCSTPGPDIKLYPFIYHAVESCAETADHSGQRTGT

For `Cn1ccc(Cn2c(=O)n(C)c3cc(S(=O)(=O)NC4(C)CC4)ccc32)n1` [Example 23], the EC50 is 8.83 µM.

`CC(=O)Nc1ccc(Cn2c(=O)n(C)c3cc(S(=O)(=O)NC4(C)CC4)ccc32)cc1` [Example 63]: the EC50 is 4.17 µM.

Consider `Cc1nnc(-n2c(C)nc3ccc(S(=O)(=O)NC4(C)CC4)cc32)s1` [Example 122], for which the EC50 worked out at 1.53 µM.

For `Cc1nnc(-n2c(=O)n(C)c3c(F)cc(S(=O)(=O)NC4(C)CC4)cc32)s1` [Example 114, 7-Fluoro-1-methyl-N-(1-methylcyclopropyl)-3-(5-methyl-1,3,4-thiadiazol-2-yl)-2-oxo-benzimidazole-5-sulfonamide], the EC50 worked out at 0.679 µM.

For `Cn1c(=O)n(CC(C)(C)C)c2ccc(S(=O)(=O)NC3(C)CC3)cc21` [Example 15], the EC50 is 6.59 µM.

As for `Cn1c(=O)n(-c2nncs2)c2cc(S(=O)(=O)NC3(C)CC3)ccc21` [Example 77], the EC50 worked out at 5 µM.

As to `COCCn1c(=O)n(-c2nnc(C)o2)c2cc(S(=O)(=O)NC3(C)CC3)ccc21` [Example 134], the EC50 is 0.91 µM.

Take `Cn1c(=O)n(Cc2ccc(C#N)cc2)c2ccc(S(=O)(=O)NC3(C)CC3)cc21` [Example 45]: the EC50 was 3.2 µM.

Regarding `Cc1nnc(-n2c(=O)[nH]c3ccc(S(=O)(=O)NC4(C)CC4)cc32)o1` [Example 94, N-(1-Methylcyclopropyl)-3-(5-methyl-1,3,4-oxadiazol-2-yl)-2-oxo-1H-benzimidazole-5-sulfonamide], the EC50 came to 1.46 µM.

`Cn1c(=O)n(Cc2cccc(C(N)=O)c2)c2ccc(S(=O)(=O)NC3(C)CC3)cc21` [Example 61]: the EC50 was 6.06 µM.

For the compound `Cn1c(=O)n(Cc2cccc(Cl)c2)c2ccc(S(=O)(=O)NC3(C)CC3)cc21` [Example 38], the EC50 came out at 5.71 µM.

`CC(=O)OCCn1c(=O)n(C)c2cc(S(=O)(=O)NC3(C)CC3)ccc21` [Example 22]: the EC50 is 9.18 µM.

On to `CNC(=O)c1noc(Cn2c(=O)n(C)c3cc(S(=O)(=O)NC4(C)CC4)ccc32)n1` [Example 60], for which the EC50 was 5.96 µM.

With `Cn1c(=O)n(CC2CCC2)c2ccc(S(=O)(=O)NC3(C)CC3)cc21` [Example 11], the EC50 is 4.67 µM.

On to `Cn1c(=O)n(CC2CC2(F)F)c2ccc(S(=O)(=O)NC3(C)CC3)cc21` (stereo not drawn) [Example 6], for which the EC50 worked out at 8.32 µM.

With `Cc1nnc(-n2c(=O)n(CCN3CCCCC3)c3ccc(S(=O)(=O)NC4(C)CC4)cc32)o1` [Example 140], the EC50 was found to be 1.97 µM.

With `Cn1c(=O)n(CC2(C)COC2)c2ccc(S(=O)(=O)NC3(C)CC3)cc21` [Example 10], the EC50 came to 8.42 µM.

With `Cn1c(=O)n(Cc2cccc(C#N)c2)c2ccc(S(=O)(=O)NC3(C)CC3)cc21` [Example 44], the EC50 stood at 3.35 µM.

`Cn1c(=O)n(Cc2ccc([N+](=O)[O-])o2)c2ccc(S(=O)(=O)NC3(C)CC3)cc21` [Example 62]: the EC50 was 5.9 µM.

Turning to `Cc1nnc(-n2c(=O)n(CC3CCCN(C)C3)c3ccc(S(=O)(=O)NC4(C)CC4)cc32)o1` (stereo not drawn) [Example 139], the EC50 stood at 1.15 µM.

As for `Cc1nc(C)c(Cn2c(=O)[nH]c3cc(S(=O)(=O)NC4(C)CC4)ccc32)s1` [Example 89, 1-[(2,4-Dimethylthiazol-5-yl)methyl]-N-(1-methylcyclopropyl)-2-oxo-3H-benzimidazole-5-sulfonamide], the EC50 amounted to 9.27 µM.

`Cc1csc(-n2c(=O)n(Cc3sc(C)nc3C)c3ccc(S(=O)(=O)NC4(C)CC4)cc32)n1` [Example 106]: the EC50 came to 1.52 µM.

Regarding `Cc1nc(C)c(Cn2c(=O)n(C3=CCCC3)c3cc(S(=O)(=O)NC4(C)CC4)ccc32)s1` [Example 113], the EC50 worked out at 0.632 µM.

`Cn1c(=O)n(-c2ccsc2)c2cc(S(=O)(=O)NC3(C)CC3)ccc21` [Example 26]: the EC50 was 6.99 µM.

Take `Cc1ncc(Cn2c(=O)n(C)c3cc(S(=O)(=O)NC4(C)CC4)ccc32)s1` [Example 65]: the EC50 is 9.8 µM.

With `Cn1c(=O)n(-c2ccccc2)c2ccc(S(=O)(=O)NC3(C)CC3)cc21` [Example 57], the EC50 amounted to 5.63 µM.

Consider `Cc1nnc(-n2c(=O)n(CCN3CCCC3)c3ccc(S(=O)(=O)NC4(C)CC4)cc32)o1` [Example 142], for which the EC50 turned out to be 3.8 µM.

For the compound `CCOC(=O)n1c(=O)n(Cc2ccc(F)cc2)c2ccc(S(=O)(=O)NC3(C)CC3)cc21` [Example 75], the EC50 came to 0.925 µM.

In the case of `CCNC(=O)n1c(=O)n(C)c2ccc(S(=O)(=O)NC3(C)CC3)cc21` [Example 32], the EC50 was found to be 6.86 µM.

With `CNC(=O)n1c(=O)n(C)c2ccc(S(=O)(=O)NC3(C)CC3)cc21` [Example 55], the EC50 stood at 7.05 µM.

As for `Cc1nnc(-n2c(CCc3cnn(C)c3)nc3ccc(S(=O)(=O)NC4(C)CC4)cc32)s1` [Example 121], the EC50 came to 1.02 µM.

In the case of `Cc1ccc(Cn2c(=O)n(C)c3cc(S(=O)(=O)NC4(C)CC4)ccc32)o1` [Example 20], the EC50 stood at 3.5 µM.

With `Cc1ccccc1C(=O)n1c(=O)n(C)c2ccc(S(=O)(=O)NC3(C)CC3)cc21` [Example 31], the EC50 amounted to 4.91 µM.

On to `Cc1nc(C)c(Cn2c(=O)n(-c3cncs3)c3cc(S(=O)(=O)NC4(C)CC4)ccc32)s1` [Example 97], for which the EC50 is 0.816 µM.

With `Cn1c(=O)n(-c2ncc(/C=C/C(=O)O)s2)c2cc(S(=O)(=O)NC3(C)CC3)ccc21` [Example 69, (E)-3-[2-[3-methyl-6-[(1-methylcyclopropyl)sulfamoyl]-2-oxo-benzimidazol-1-yl]thiazol-5-yl]prop-2-enoic acid], the EC50 was 3.21 µM.

Turning to `Cn1c(=O)n(Cc2ccccc2C#N)c2ccc(S(=O)(=O)NC3(C)CC3)cc21` [Example 43], the EC50 stood at 5.25 µM.

Consider `CC1CC1Cn1c(=O)n(C)c2cc(S(=O)(=O)NC3(C)CC3)ccc21` (stereo not drawn) [Example 8], for which the EC50 amounted to 4.51 µM.

On to `Cn1c(=O)n(CC2(C)CC2)c2ccc(S(=O)(=O)NC3(C)CC3)cc21` [Example 9], for which the EC50 came out at 4.04 µM.

As to `Cn1c(=O)n(-c2nccs2)c2cc(S(=O)(=O)NC3(C)CC3)ccc21` [Example 53], the EC50 came to 2.86 µM.

Regarding `Cc1cccc(Cn2c(=O)n(C)c3cc(S(=O)(=O)NC4(C)CC4)ccc32)c1` [Example 33], the EC50 came out at 6.31 µM.

In the case of `Cn1c(=O)n(Cc2ccc(C(N)=O)cc2)c2ccc(S(=O)(=O)NC3(C)CC3)cc21` [Example 59], the EC50 is 2.66 µM.

For the compound `Cn1c(=O)n(CC2CCCC2)c2ccc(S(=O)(=O)NC3(C)CC3)cc21` [Example 16], the EC50 was 3.39 µM.

Consider `Cc1nnc(-n2c(CCN)nc3ccc(S(=O)(=O)NC4(C)CC4)cc32)s1` [Example 125], for which the EC50 was found to be 2.56 µM.

With `Cc1nc(C)c(Cn2c(=O)n(-c3nncs3)c3cc(S(=O)(=O)NC4(C)CC4)ccc32)s1` [Example 110], the EC50 stood at 0.234 µM.

Consider `Cn1c(=O)n(C(=O)c2ccccc2)c2cc(S(=O)(=O)NC3(C)CC3)ccc21` [Example 27], for which the EC50 was 0.925 µM.

As for `COc1ccc(Cn2c(=O)n(C)c3cc(S(=O)(=O)NC4(C)CC4)ccc32)cc1` [Example 37], the EC50 stood at 3.15 µM.

As to `CCOC(=O)n1c(=O)n(C)c2ccc(S(=O)(=O)NC3(C)CC3)cc21` [Example 66], the EC50 was determined as 1.35 µM.

In the case of `Cn1c(=O)n(CC2CCCCC2)c2ccc(S(=O)(=O)NC3(C)CC3)cc21` [Example 12], the EC50 was found to be 8.29 µM.

Turning to `C=CCn1c(=O)n(C)c2cc(S(=O)(=O)NC3(C)CC3)ccc21` [Example 18], the EC50 is 7.56 µM.

On to `Cn1c(=O)n(Cc2ccc(Cl)cc2)c2ccc(S(=O)(=O)NC3(C)CC3)cc21` [Example 39], for which the EC50 was 3.74 µM.

Take `CC1(NS(=O)(=O)c2ccc3c(c2)N(C(=O)CN2CCNC2=O)CC3)CC1` [Example 21, N-(1-Methylcyclopropyl)-1-[2-(2-oxoimidazolidin-1-yl)acetyl]indoline-6-sulfonamide]: the EC50 was determined as 5.23 µM.

Consider `Cn1c(=O)n(CC2CC2)c2ccc(S(=O)(=O)NC3(C)CC3)cc21` [Example 2], for which the EC50 was 5 µM.

For `Cn1c(=O)n(-c2ccc(C=O)s2)c2cc(S(=O)(=O)NC3(C)CC3)ccc21` [Example 54], the EC50 came to 9.07 µM.

For `Cc1nnc(-n2c(=O)n(CCN(C)C)c3ccc(S(=O)(=O)NC4(C)CC4)cc32)s1` [Example 85], the EC50 came to 0.684 µM.

Turning to `Cc1ccc(Cn2c(=O)n(C)c3cc(S(=O)(=O)NC4(C)CC4)ccc32)cc1` [Example 34], the EC50 worked out at 6.21 µM.

Turning to `Cn1c(=O)n(Cc2cc(Cl)cc(Cl)c2)c2ccc(S(=O)(=O)NC3(C)CC3)cc21` [Example 48], the EC50 was determined as 7.83 µM.

Turning to `Cc1nnc(-n2cc(CC3CC3)c3ccc(S(=O)(=O)NC4(C)CC4)cc32)s1` [Example 128, 3-(Cyclopropylmethyl)-N-(1-methylcyclopropyl)-1-(5-methyl-1,3,4-thiadiazol-2-yl)indole-6-sulfonamide], the EC50 was 2.11 µM.

Consider `CCOC(=O)n1cc(Cc2sc(C)nc2C)c2ccc(S(=O)(=O)NC3(C)CC3)cc21` [Example 132, Ethyl 3-[(2,4-dimethylthiazol-5-yl)methyl]-6-[(1-methylcyclopropyl)sulfamoyl]indole-1-carboxylate], for which the EC50 turned out to be 7.42 µM.

For `Cn1c(=O)n(Cc2ccccc2F)c2ccc(S(=O)(=O)NC3(C)CC3)cc21` [Example 40], the EC50 stood at 6.3 µM.

For the compound `Cc1nc(C)c(Cn2c(=O)n(-c3cnsc3)c3cc(S(=O)(=O)NC4(C)CC4)ccc32)s1` [Example 93], the EC50 is 1.34 µM.
